From patent publication US9682938B2, “Pyrazolone derivatives as nitroxyl donors” (Cardioxyl Pharmaceuticals, Inc., priority 2014, dated 2017) come the findings set out here.

Data set [1] is described as follows: In vitro plasma stability, rat plasma. It counts as in vitro ADME. The conditions noted are these: male, pH 7.4, 5 μM, 37° C., sampling 0-360 minutes, read-out: T1/2 Rat. A digest of the protocol:
(§1)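 Pooled plasma at pH 7.4 with sodium heparin or citrate anticoagulant; compound at 5 μM, 37° C with shaking, triplicate samples at 0–360 min. Quenched in acetonitrile/1% formic acid with internal standard; LC-MS/MS peak-area ratios without standard curve; T1/2 from percent remaining.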

The nature of data set [2]: Solid-state stability at 40° C. and 75% RH (purity by HPLC). The conditions noted are these: solid powder; for Solid-state stability, purity by HPLC, 0 Months: 0 Months (initial); for Solid-state stability, purity by HPLC, 1 Month: in % (unit assumed). The format is physicochemical. The method, then: Solid, powdered samples of certain compounds from Table 1 were sealed in double polyethylene bags and stored at 40° C., 75% relative humidity (“RH”) for up to 3 months. A control compound, compound 7 disclosed in WO 2013/059194, was also tested. Initially and after 1 month, 2 months, and 3 months of storage, the samples were analyzed for purity, as determined by high performance liquid chromatography (“HPLC”). Additionally, certain compounds from Table 1 were admixed at a level of 50% by weight with one of the following excipients before stability testing: lactose, microcrystalline cellulose, or croscarmellose sodium. The resulting admixtures were also stored as described above then analyzed for purity of the pyrazolone derivative component, as determined by HPLC. The HPLC apparatus comprised a quaternary or binary pump, an auto sampler, a thermostated column compartment, and a UV/visible detector. The HPLC measurement conditions were as follows: • Column: Zorbax Eclipse XDB-C18, 2.1×50 mm, 3.5 μm (Agilent Technologies, Santa Clara, Calif.) • Injection Volume: 2 μL • Detection Wavelength: 220 nm • Mobile Phase A: 0.1% by volume formic acid (“FA”) in water • Mobile Phase B: 0.1% by volume FA in acetonitrile • Diluent: About 0.2 mg sample/mL acetonitrile • Gradient:
• Flow Rate: 0.8 mL/min • Column Temperature: 25° C.

The nature of data set [3]: Nitroxyl production via 1H NMR protocol using TXPTS (NMR half-lives). It counts as physicochemical. The note with it: phosphate buffer containing TXPTS (HNO trap); pH 7.4, 0.25 M phosphate buffer, 5 mM TXPTS, 1 mM compound, 37° C., spectra over 8 hours; read-out: NMR-T1/2. The method, then:
The ^1H NMR procedure used was based on an HPLC protocol developed by S. Bruce King and coworkers (Reisz et al., Org. Lett. 11:2719-2721 (2009), Reisz et al., J. Am. Chem. Soc. 133:11675-11685 (2011) and Guthrie et al., J. Org. Chem. 80:1338-1348 (2015)). According to this procedure, the amount of HNO released from a pyrazolone derivative compound was determined by reacting the compound with the triarylphosphine TXPTS and monitoring the resulting aza-ylide formation.
The procedure for determining the amount of HNO released from certain compounds from Table 1 was as follows.
Tris(4,6-dimethyl-3-sulfanatophenyl)phosphine trisodium salt (TXPTS) was of reagent grade and used without further purification. Synthetic TXPTS aza-ylide was obtained through the amidation of TXPTS using hydroxylamine O-sulfonic acid in water (Armstrong et al., Org. Lett. 7:713-716 (2005)). All other materials were of reagent grade and used without further purification.
All ^1H NMR spectra were obtained in an adjusted-to pH 7.4 solution containing 0.25 M phosphate buffer, 0.2 mM of the metal chelator diethylenetriaminepentaacetic acid (“DTPAC”), and 10% D2O on a Bruker Avance 250 MHz FT-NMR spectrometer using a 1 second presaturation pulse to suppress the water signal. To a nitrogen-purged NMR solution (1.00 mL) containing TXPTS (3.3 mg, 5 mM) was added a pyrazolone derivative compound (10 μL of 100 mM in methanol-d4) to give 1 mM as the initial concentration of the pyrazolone derivative compound. The solution was briefly mixed, about 0.5 mL was transferred to a nitrogen-purged NMR tube and an initial ^1H NMR spectrum (time=0) was obtained. Thereafter, the sample was internally incubated at 37° C. and ^1H NMR spectra were collected at regular intervals for 8 hours.
The HNO donating pyrazolone derivative compound, by-product (e.g., (III) in Scheme 1), and TXPTS aza-ylide concentrations, determined from NMR spectra taken over 8 hours, were plotted as a function of time, and each data set was fitted to a single exponential function. The NMR half-lives for the disappearance of the HNO donating pyrazolone derivative compound and the appearance of by-product and TXPTS aza-ylide were determined from the respective plots. […] A control compound, compound 7 disclosed in WO 2013/059194, was also evaluated.

Data set [4] in a line: In vitro plasma stability, human plasma. The note with it: male, pH 7.4, 5 μM, 37° C., sampling 0-360 minutes, read-out: T1/2 Human. The format is in vitro ADME. A digest of the protocol:
as §1

For data set [5], the system named is normal beagle dogs. Briefly: Pharmacodynamic activity: systolic blood pressure decrease in telemetered dogs after oral dose. It counts as in vivo, dog. The note with it: beagle dogs (n=3), single oral dose 30 mg/kg in PEG300, first 2 hr post-dose relative to baseline SBP. Here is the method:
The effect of certain compounds from Table 1 on blood pressure in freely moving telemetered normal beagle dogs (n=3) after single oral doses was evaluated. The animals were surgically implanted with a pressure transducer equipped telemetry transmitter. The transmitter assembly was secured internally and a fluid-filled catheter was placed into the abdominal aorta to allow for collection of cardiovascular data. To evaluate cardiovascular effects, 3 dogs were given single oral doses of a compound from Table 1 (100% PEG300 in gelatin capsules) at a concentration of 100 mg/mL and at doses of 30 mg/kg. Systemic blood pressure and heart rate were evaluated continuously for 2 hr before and for 24 hr after dosing (results not shown). To compare the pharmacodynamic activity for all tested compounds, the mean systolic blood pressure (SBP) decrease during the first 2 hr post-dose was determined relative to the baseline SBP (30-120 min pre-dose) (Table 6).

Data set [6] can be described thus: In vitro plasma stability, dog plasma. The format is in vitro ADME. The conditions noted are these: male, pH 7.4, 5 μM, 37° C., sampling 0-360 minutes, read-out: T1/2 Dog. The method, boiled down:
as §1

Several values for one entry are separate records, joined by “and”; a condition that tells them apart may be missing. Equal entries are not always repeated.

For `CN1N=C(c2ccc(Cl)cc2)C(C)(NO)C1=O` (centres unmarked) [Compound 1, 5-(4-chlorophenyl)-4-(hydroxyamino)-2,4-dimethyl-2,4-dihydro-3H-pyrazol-3-one], the half-life at 5 μM in data set [1] was determined as 1.33 h. In data set [2], the Solid-state stability, purity by HPLC, 0 Months was determined as 100%; the “Solid-state stability, purity by HPLC, 1 Month” value (from here on “Solid-state stability … 1 Month”) turned out to be 99.2; the Solid-state stability, purity by HPLC, 2 Months amounted to 99.8%; the Solid-state stability, purity by HPLC, 3 Months came to 99.8%. Besides, the half-life at 1 mM in data set [3] is 13 h. For the same compound, the half-life at 5 μM in data set [4] amounted to 1.4 h. The “Mean SBP decrease” value in data set [5] came to 3 mmHg. Also, the half-life at 5 μM in data set [6] is 2.47 h.

Take `CN1N=C(c2ccccc2Cl)C(C)(NO)C1=O` (centres unmarked) [Compound 2, 5-(2-chlorophenyl)-4-(hydroxyamino)-2,4-dimethyl-2,4-ddihydro-3H-pyrazol-3-one]: the half-life at 5 μM in data set [1] stood at 1.02 h. Also, in data set [2], the Solid-state stability, purity by HPLC, 0 Months is 91.2%; the “Solid-state stability … 1 Month” value is reported as under 10; the Solid-state stability, purity by HPLC, 2 Months was under 10%; the Solid-state stability, purity by HPLC, 3 Months is under 10%. Also, the half-life at 1 mM in data set [3] was determined as 0.833 h. Also, the half-life at 5 μM in data set [4] stood at 0.867 h. The “Mean SBP decrease” value in data set [5] worked out at 2 mmHg. Also, the half-life at 5 μM in data set [6] stood at 1.2 h.

For the compound `CN1N=C(c2ccccc2F)C(C)(NO)C1=O` (centres unmarked) [Compound 3, 5-(2-fluorophenyl)-4-(hydroxyamino)-2,4-dimethyl-2,4-dihydro-3H-pyrazol-3-one], the figures for the half-life at 5 μM in data set [1], in data set [4] and in data set [6] were 0.617 h, 0.533 h and 0.467 h, respectively. In addition, the half-life at 1 mM in data set [3] came out at 3.95 h. In addition, the “Mean SBP decrease” value in data set [5] was 28 mmHg.

As to `CC1=NN(C)C(=O)C1(NO)c1ccccc1` (centres unmarked) [Compound 6, 4-(hydroxyamino)-2,5-dimethyl-4-phenyl-2,4-dihydro-3H-pyrazol-3-one], in data set [2], the Solid-state stability, purity by HPLC, 0 Months worked out at 99.8% and the “Solid-state stability … 1 Month” value is under 10. The half-life at 1 mM in data set [3] turned out to be 0.567 h. Moreover, the half-life at 5 μM in data set [4] was determined as 0.633 h. Also, the “Mean SBP decrease” value in data set [5] amounted to 22 mmHg. Further, the half-life at 5 μM in data set [6] stood at 0.2 h.

As to `CN1N=C(c2ccc(S(C)(=O)=O)cc2)C(C)(NO)C1=O` (centres unmarked) [Compound 14, 4-(hydroxyamino)-2,4-dimethyl-5-(4-(methylsulfonyl)phenyl)-2,4-dihydro-3H-pyrazol-3-one], the half-life at 5 μM was found to be 0.667 h in data set [1], 0.817 h in data set [4] and 1.1 h in data set [6]. In addition, the Solid-state stability, purity by HPLC, 0 Months in data set [2] was 99.3%. Further, the “Solid-state stability … 1 Month” value in data set [2] is 97.0 and 61.0. Besides, the Solid-state stability, purity by HPLC, 2 Months in data set [2] came out at 68%. The half-life at 1 mM in data set [3] was 6.32 h. In addition, in data set [5], the “Mean SBP decrease” value turned out to be 13 mmHg.

Turning to `CN1N=C(c2ccccc2)C(C)(NO)C1=O` (centres unmarked) [Compound 15, 4-(hydroxyamino)-2,4-dimethyl-5-phenyl-2,4-dihydro-3H-pyrazol-3-one], the half-life at 5 μM in data set [1] was 1.12 h; in data set [4], 1.33 h; in data set [6] it was 1.67 h. The same compound gave a Solid-state stability, purity by HPLC, 0 Months in data set [2] of 98.3%. Further, the “Solid-state stability … 1 Month” value in data set [2] was under 10. The half-life at 1 mM in data set [3] was 16.8 h. For the same compound, the “Mean SBP decrease” value in data set [5] came to 31 mmHg.
